Tests used:
[1] = Glewwe foam meter foam height test; assay type: physicochemical; conditions: 50 ppm; for OBSERVATIONS (foam stability after pump stopped): after 5 minutes pump stopped; for Foam Height (in) @ 1 MIN / Foam Height (in) @ 5 MIN: city water 17 gpg, 140° F., 6 psi; for Foam Height (in) @ 1 MIN: 1 minute
Description: Foam testing was completed for the ethoxylated glycerine ether solfactants in comparison to commercially-available ethoxylated alcohols using a Glewwe foam meter. A Glewwe foam meter provides a dynamic foam test rather than a static test, which is considered more appropriate for simulation of industrial conditions. The equipment and general procedure for the Glewwe form test is described in U.S. Pat. Nos. 3,899,387 and 5,447,648, which are herein incorporated by reference in its entirety. The foam meter itself consists of a thermostated reservoir and a pump to recirculate the aqueous medium with foaming tendencies. The foam developed by the action of the aqueous stream impinging on the surface in the reservoir causes foam formation.
The foam heights of the tested compositions were determined using the following method. First 3000 mL of city water (e.g. 17 gpg) was filled into the Glewwe cylinder. The pump was turned on, pressure adjusted to 6 psi, and heated water to 140° F. The commercially available surfactant (or the solfactant according to the invention) was added at 50 ppm in the cylinder and the timer was started. Foam height was recorded at 1 minute and 5 minutes. After 5 minutes the pump was stopped and foam stability characteristics were observed. The cylinder was then drained, rinsed, and the methods repeated.

[2] = Cloud point of solfactants in various solutions; assay type: physicochemical
Description: Various 2-Ethyl Hexanol Glycerin Ether Ethoxylate solfactants were produced using ethoxylation by a KOH Catalyst.
Further the cloud point data for the solfactants in various solutions is shown. The cloud point temperatures show the temperature above which a surfactant-rich phase separates from an aqueous solution. There is a clear relationship between the cloud point and the average EO content of the glycerin ether ethoxylate; as the ethylene oxide content of the solfactant increases, the cloud point and water solubility increase. As the carbon number on the molecule increases, a greater number of moles of ethylene oxide are required to be added to the molecule to retain the same cloud point.

[3] = Tergotometer detergency test on EMPA soiled swatches
Method: Laundry detergent compositions using 500 ppm sodium hydroxide (e.g. caustic) and the indicated conventional Surfonic® surfactant or the glycerin ether ethoxylate solfactant according to the invention were evaluated. A tergotometer test procedure was employed to measure detergency of test compositions according to the invention. A tergotometer along with 500 mL pots and water bath were employed. First, unwashed swatches from the lot numbers to be used in the test are read on the Konica Minolta Spectrophotometer model CM-3600d to establish the average initial (before washing) L value. A sampling of each swatch type is used. The desired wash temperature is programmed into the Tergotometer and its water bath is allowed to heat up to that temperature. 500 mL of the desired water type is added to each Tergotometer pot and allowed to equilibrate to the desired temperature.
The following standard, commercially available (EMPA) soiled swatches were used for baseline testing in the Examples, as shown in Table 9.
The test detergent compositions are weighed out and added to the Tergotometer pots. Various detergent compositions as shown in Tables 10-11 were employed under varying water conditions, including 5 grain water (Table 10) and 17 grain water (Table 11).
The detergent systems were agitated for 10 minutes to mix and dissolve in the water sources. The agitation/mixing speed RPM was adjusted to 200. The temperature of the detergent compositions dissolved in water was 60° C., unless indicated otherwise in the Figures/Examples set forth below. The swatches are added quickly to their respective pots in a left to right sequence in order to minimize differences in exposure time to the detergent systems. A wash run is completed for at least 10 minutes. At the end of the run, the swatches are removed from the pots quickly in a left to right sequence using a forceps and are transferred into 500 mL-1 liter of cool water to rinse. After rinsing with cold tap water, excess water from the swatches was removed by squeezing the swatches. The process was repeated with rinsing and squeezing excess water at least 2 more times. The swatches were air dried on a visa napkin or paper towel on the lab bench.
The swatches were then read on the HunterLab Color Quest and calculate % soil removal (i.e. whiteness) from the difference between the initial (before washing) L value and the final L value (after washing). Percent Soil Removal=(L after−L initial)/(96−L initial)*100 is represented as L*.

Gel formation with water = assay type: physicochemical
Description: The low foam profiles and low viscosity of the glycerin ether ethoxylate solfactants as shown in Examples 5 and 6 were further compared to gel curves of conventional ethoxylated alcohols (e.g. Tomadol surfactants). […]

[4] = 5 gpg water, 50 ppm, 500 ppm sodium hydroxide, 60° C., EMPA 116 (Blood, milk and ink, Cotton)
[5] = 5 gpg, 50 ppm, EMPA 101 (olive oil/carbon black, Cotton)
[6] = 5 gpg, 50 ppm, EMPA 104 (olive oil/carbon black, Cotton blend)
[7] = 5 gpg, 50 ppm, EMPA 106 (mineral oil, Cotton)
[8] = 5 gpg, 50 ppm, EMPA 111 (Pig blood, Cotton)
[9] = 5 gpg, 50 ppm, EMPA 114 (Red wine, Cotton)
[10] = Glycerin Ether Ethoxylate %/Water % 10%/90%

| Substance | OBSERVATIONS (foam stability after pump stopped) [1] | Foam Height (in) @ 1 MIN [1] | Foam Height (in) @ 5 MIN [1] | % removal EMPA 116 [3, 4] | % removal EMPA 101 [3, 5] | % removal EMPA 104 [3, 6] | % removal EMPA 106 [3, 7] | % removal EMPA 111 [3, 8] | % removal EMPA 114 [3, 9] | % removal EMPA 101 ([3]; 5 gpg, 100 ppm, EMPA 101) | % removal EMPA 104 ([3]; 5 gpg, 100 ppm, EMPA 104) | % removal EMPA 106 ([3]; 5 gpg, 100 ppm, EMPA 106) | % removal EMPA 111 ([3]; 5 gpg, 100 ppm, EMPA 111) | % removal EMPA 114 ([3]; 5 gpg, 100 ppm, EMPA 114) | % removal EMPA 116 ([3]; 5 gpg, 100 ppm, EMPA 116) | % removal EMPA 101 ([3]; 17 gpg, 50 ppm, EMPA 101) | % removal EMPA 104 ([3]; 17 gpg, 50 ppm, EMPA 104) | % removal EMPA 106 ([3]; 17 gpg, 50 ppm, EMPA 106) | % removal EMPA 111 ([3]; 17 gpg, 50 ppm, EMPA 111) | % removal EMPA 114 ([3]; 17 gpg, 50 ppm, EMPA 114) | also measured |
| --- | --- | --- | --- | --- | --- | --- | --- | --- | --- | --- | --- | --- | --- | --- | --- | --- | --- | --- | --- | --- | --- |
| 2-Ethyl Hexanol Glycerin Ether Ethoxylate (1 mole) [2EHGE (1 EO)] | Unstable - Breaks | 3 in | 3 in | 26% | 27% | 26% | 50.77% | 49% | 0% | 29% | 21% | 48.73% | 52% | −1% | 27% | 19% | 14% | 6% | 32% | 0% | Cloud Point Data 10% in BDG Soln. ([2]; 10% in BDG Soln.): 59.5 °C; % removal EMPA 116 ([3]; 17 gpg, 50 ppm, EMPA 116): 17%; % removal EMPA 101 ([3]; 17 gpg, 100 ppm, EMPA 101): 18%; % removal EMPA 104 ([3]; 17 gpg, 100 ppm, EMPA 104): 15%; % removal EMPA 106 ([3]; 17 gpg, 100 ppm, EMPA 106): 7%; % removal EMPA 111 ([3]; 17 gpg, 100 ppm, EMPA 111): 30%; % removal EMPA 114 ([3]; 17 gpg, 100 ppm, EMPA 114): −1%; % removal EMPA 116 ([3]; 17 gpg, 100 ppm, EMPA 116): 17% |
| 2-Ethyl Hexanol Glycerin Ether Ethoxylate (3 moles) [2EHGE (3 EO)] | Unstable - Breaks | 3.5 in | 4 in | 34% | 45% | 49% | 60.8% | 50% | 1% | 29% | 25% | 50.39% | 48% | 0% | 29% | 17% | 15% | 14% | 29% | −2% | Cloud Point Data 1% in 10% NaCl [2]: 33 °C; Cloud Point Data 1% in D.I. H2O ([2]; 1% in D.I. H2O): 50.5 °C; Gel Formation (Gel formation with water; 20%/80%): None; Gel Formation (Gel formation with water; 30%/70%): None; Gel Formation (Gel formation with water; 40%/60%): None; Gel Formation (Gel formation with water; 50%/50%): None; Gel Formation (Gel formation with water; 60%/40%): None; Gel Formation (Gel formation with water; 70%/30%): None; Gel Formation (Gel formation with water; 80%/20%): None; Gel Formation (Gel formation with water; 90%/10%): None; Gel Formation (Gel formation with water; [10]): None; % removal EMPA 116 ([3]; 17 gpg, 50 ppm, EMPA 116): 15%; % removal EMPA 101 ([3]; 17 gpg, 100 ppm, EMPA 101): 19%; % removal EMPA 104 ([3]; 17 gpg, 100 ppm, EMPA 104): 13%; % removal EMPA 106 ([3]; 17 gpg, 100 ppm, EMPA 106): 9%; % removal EMPA 111 ([3]; 17 gpg, 100 ppm, EMPA 111): 27%; % removal EMPA 114 ([3]; 17 gpg, 100 ppm, EMPA 114): −1%; % removal EMPA 116 ([3]; 17 gpg, 100 ppm, EMPA 116): 16% |
| 2-Ethyl Hexanol Glycerin Ether Ethoxylate (5 moles) [2EHGE (5 EO)] | Unstable - Breaks | 4 in | 4 in | 30% | 40% | 48% | 59.51% | 48% | 2% | 29% | 23% | 49.62% | 45% | 1% | 28% | 19% | 15% | 13% | 30% | 0% | Cloud Point Data 1% in 10% NaCl [2]: 71.5 °C; Gel Formation (Gel formation with water; 20%/80%): None; Gel Formation (Gel formation with water; 30%/70%): None; Gel Formation (Gel formation with water; 40%/60%): None; Gel Formation (Gel formation with water; 50%/50%): None; Gel Formation (Gel formation with water; 60%/40%): None; Gel Formation (Gel formation with water; 70%/30%): None; Gel Formation (Gel formation with water; 80%/20%): None; Gel Formation (Gel formation with water; 90%/10%): None; Gel Formation (Gel formation with water; [10]): None; % removal EMPA 116 ([3]; 17 gpg, 50 ppm, EMPA 116): 17%; % removal EMPA 101 ([3]; 17 gpg, 100 ppm, EMPA 101): 21%; % removal EMPA 104 ([3]; 17 gpg, 100 ppm, EMPA 104): 19%; % removal EMPA 106 ([3]; 17 gpg, 100 ppm, EMPA 106): 11%; % removal EMPA 111 ([3]; 17 gpg, 100 ppm, EMPA 111): 41%; % removal EMPA 114 ([3]; 17 gpg, 100 ppm, EMPA 114): 0%; % removal EMPA 116 ([3]; 17 gpg, 100 ppm, EMPA 116): 20% |
